In ChEMBL document CHEMBL1201862, “PubChem BioAssay data set” (2004):
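Each compound was tested at five concentrations against cells in 96-well plates for 48 hours. At the GI50, growth is halved.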 Active and inactive are the calls of the source. Rule as the data show it: active = GI50 up to about 1.1 µM and inactive = higher.

Columns and labels:
Test in all cases: growth of human tumour cells (NCI), 48 h
SF-295 = test system: SF-295
NCI-H226 = test system: NCI-H226
U-251 = test system: U-251
CCRF-CEM = test system: CCRF-CEM
SF-539 = test system: SF-539
SK-MEL-2 = test system: SK-MEL-2
SF-268 = test system: SF-268
UACC-62 = test system: UACC-62
UACC-257 = test system: UACC-257
SNB-19 = test system: SNB-19
SNB-75 = test system: SNB-75
LOX IMVI = test system: LOX IMVI
OVCAR-5 = test system: OVCAR-5
HOP-92 = test system: HOP-92
OVCAR-4 = test system: OVCAR-4
SW-620 = test system: SW-620
M14 = test system: M14
HCT-116 = test system: HCT-116
SR = test system: SR

Measured: GI50

Cc1ccccc1N(CC(=O)O)S(=O)(=O)c1ccccc1
inactive: SF-295 > 100 µM | NCI-H226 > 100 µM | U-251 > 100 µM | CCRF-CEM > 100 µM | SF-539 > 100 µM | SK-MEL-2 > 100 µM | SF-268 > 100 µM | UACC-62 > 100 µM | UACC-257 > 100 µM | SNB-19 > 100 µM | SNB-75 > 100 µM | LOX IMVI > 100 µM | OVCAR-5 > 100 µM | HOP-92 > 100 µM | OVCAR-4 > 100 µM | SW-620 > 100 µM | M14 > 100 µM

NC(=O)N/C=C1\C(=O)Oc2ccccc2C1=O
inactive: SF-295 51.8 µM | NCI-H226 > 100 µM | CCRF-CEM > 100 µM | SF-539 85.9 µM | SK-MEL-2 40 µM | SF-268 95.7 µM | HCT-116 > 100 µM | UACC-62 77.8 µM | UACC-257 89.9 µM | SNB-19 82.8 µM | LOX IMVI > 100 µM | OVCAR-5 35.3 µM | HOP-92 56.9 µM | OVCAR-4 > 100 µM | SW-620 > 100 µM | M14 82.8 µM

CC(C)C1N2CCCCC2[C@@H]2c3[nH]c4ccccc4c3CCN12 (stereo partly drawn)
inactive: SF-295 > 100 µM | U-251 > 100 µM | CCRF-CEM > 100 µM | SF-539 > 100 µM | SK-MEL-2 > 100 µM | SF-268 > 100 µM | HCT-116 > 100 µM | UACC-62 > 100 µM | UACC-257 > 100 µM | SNB-19 > 100 µM | SNB-75 > 100 µM | OVCAR-5 > 100 µM | HOP-92 > 100 µM | OVCAR-4 > 100 µM | SW-620 > 100 µM | M14 > 100 µM

CC(=O)CCCCO
inactive: SF-295 > 100 µM | U-251 > 100 µM | CCRF-CEM > 100 µM | SF-539 > 100 µM | SK-MEL-2 > 100 µM | SF-268 > 100 µM | HCT-116 > 100 µM | UACC-62 > 100 µM | UACC-257 > 100 µM | SNB-19 > 100 µM | SNB-75 > 100 µM | LOX IMVI > 100 µM | OVCAR-5 > 100 µM | HOP-92 > 100 µM | OVCAR-4 > 100 µM | SW-620 > 100 µM | M14 > 100 µM

Cc1ccc([Se][Se]c2ccc(C)cc2)cc1
inactive: SF-295 23.3 µM | NCI-H226 24.5 µM | U-251 3.18 µM | CCRF-CEM 3.48 µM | SF-539 22.3 µM | SK-MEL-2 45.2 µM | SF-268 6.84 µM | HCT-116 14.4 µM | UACC-62 9.4 µM | UACC-257 17 µM | SNB-19 33 µM | SNB-75 7.91 µM | LOX IMVI 5.42 µM | HOP-92 6.87 µM | OVCAR-4 12.5 µM | SW-620 7.62 µM | M14 > 10 µM

C[C@]12Cc3cn[nH]c3C(=O)C1CC[C@@H]1C2CC[C@@]2(C)C1CC[C@]2(C)O (stereo partly drawn)
inactive: SF-295 > 100 µM | NCI-H226 > 100 µM | U-251 > 100 µM | CCRF-CEM > 100 µM | SF-539 84.5 µM | SK-MEL-2 > 100 µM | SF-268 > 100 µM | HCT-116 > 100 µM | UACC-62 > 100 µM | UACC-257 > 100 µM | SNB-19 > 100 µM | SNB-75 39.7 µM | LOX IMVI > 100 µM | OVCAR-5 > 100 µM | HOP-92 > 100 µM | OVCAR-4 > 100 µM | SW-620 > 100 µM | M14 > 100 µM

COc1cc(Cl)c2c3c(c(C(C)=O)oc13)CCC2
inactive: SF-295 > 100 µM | U-251 > 100 µM | CCRF-CEM > 100 µM | SF-539 > 100 µM | HCT-116 > 100 µM | UACC-62 > 100 µM | UACC-257 > 100 µM | SNB-19 > 100 µM | SNB-75 > 100 µM | LOX IMVI > 100 µM | HOP-92 92.9 µM | OVCAR-4 > 100 µM | SW-620 > 100 µM | M14 > 100 µM

COc1cc(-c2cc(=O)c3c(O)c(OC)c(OC)c(OC)c3o2)ccc1O
inactive: SF-295 23.4 µM | U-251 8.97 µM | CCRF-CEM 22.4 µM | SF-539 11.8 µM | SK-MEL-2 17.7 µM | SF-268 26.5 µM | HCT-116 24.8 µM | UACC-62 14.8 µM | UACC-257 20.7 µM | SNB-19 34 µM | LOX IMVI 16.8 µM | OVCAR-5 > 100 µM | HOP-92 2.33 µM | SR 23 µM | SW-620 31.7 µM | M14 23.3 µM

C[C@]12CC[C@H](OC(=O)Nc3ccccc3)CC1=CC[C@@H]1C2CC[C@]2(C)/C(=N/OC(=O)Nc3ccccc3)CCC12 (stereo partly drawn)
inactive: SF-295 10 µM | U-251 43.7 µM | CCRF-CEM 2.83 µM | SF-539 > 100 µM | SK-MEL-2 > 100 µM | SF-268 7.94 µM | HCT-116 4.18 µM | UACC-62 > 100 µM | SNB-19 76.2 µM | SNB-75 5.5 µM | LOX IMVI 5.32 µM | OVCAR-5 70.5 µM | HOP-92 20.1 µM | OVCAR-4 5.66 µM | SW-620 > 100 µM | M14 12.5 µM

O=C(NN1C(=O)C(Cl)C1c1cccc(O)c1)c1ccccc1O (stereo not drawn)
inactive: SF-295 > 100 µM | NCI-H226 > 100 µM | U-251 > 100 µM | CCRF-CEM > 100 µM | SF-539 > 100 µM | SK-MEL-2 > 100 µM | SF-268 > 100 µM | HCT-116 > 100 µM | UACC-62 > 100 µM | UACC-257 > 100 µM | SNB-19 > 100 µM | SNB-75 > 100 µM | LOX IMVI > 100 µM | OVCAR-4 > 100 µM | M14 > 100 µM

CCOC(=O)/C(O)=C1\C(=O)N(C)C(=O)C1c1cccc(OC)c1 (stereo not drawn)
inactive: SF-295 > 100 µM | NCI-H226 > 100 µM | U-251 > 100 µM | CCRF-CEM > 100 µM | SF-539 > 100 µM | SK-MEL-2 > 100 µM | SF-268 > 100 µM | HCT-116 > 100 µM | UACC-62 > 100 µM | UACC-257 > 100 µM | SNB-19 > 100 µM | SNB-75 > 100 µM | LOX IMVI > 100 µM | OVCAR-5 > 100 µM | HOP-92 > 100 µM | OVCAR-4 > 100 µM | SW-620 > 100 µM

C=C=C(C(=O)OC)[S+]([O-])c1ccccc1[N+](=O)[O-] (stereo not drawn)
inactive: SF-295 > 100 µM | NCI-H226 > 100 µM | U-251 > 100 µM | CCRF-CEM 24.7 µM | SF-539 > 100 µM | SK-MEL-2 > 100 µM | SF-268 > 100 µM | HCT-116 89.9 µM | UACC-62 > 100 µM | UACC-257 > 100 µM | SNB-19 > 100 µM | SNB-75 > 100 µM | OVCAR-5 > 100 µM | OVCAR-4 > 100 µM | SW-620 99.5 µM | M14 > 100 µM

O=C(Cc1nc2ccccc2o1)C(=O)Nc1cccc(C(F)(F)F)c1
inactive: SF-295 > 100 µM | NCI-H226 > 100 µM | U-251 > 100 µM | CCRF-CEM > 100 µM | SF-539 > 100 µM | SK-MEL-2 > 100 µM | SF-268 > 100 µM | HCT-116 > 100 µM | UACC-62 > 100 µM | UACC-257 > 100 µM | SNB-19 > 100 µM | SNB-75 > 100 µM | LOX IMVI > 100 µM | OVCAR-5 > 100 µM | HOP-92 > 100 µM | OVCAR-4 > 100 µM | SW-620 > 100 µM | M14 > 100 µM

Cc1nc(-n2nc(-c3ccccc3)cc2-c2ccccc2)sc1C(/C=C/c1ccc([N+](=O)[O-])cc1)=N/NC(=O)c1ccncc1
inactive: SF-295 29 µM | NCI-H226 17.9 µM | U-251 27.7 µM | CCRF-CEM 7.6 µM | SF-539 13.1 µM | SK-MEL-2 17.7 µM | SF-268 20 µM | HCT-116 9.12 µM | UACC-62 19.4 µM | UACC-257 41.7 µM | SNB-19 14 µM | SNB-75 22.9 µM | LOX IMVI 14.2 µM | OVCAR-5 53.1 µM | HOP-92 11.5 µM | SW-620 26.7 µM | M14 20.2 µM

COc1cc2c(cc1OC)C(Cl)C(c1ccc(Cl)c(Cl)c1)=C2Cl (stereo not drawn)
inactive: SF-295 9.82 µM | NCI-H226 8.99 µM | U-251 4.71 µM | CCRF-CEM 3.02 µM | SF-539 10.3 µM | SK-MEL-2 6.84 µM | SF-268 6.21 µM | UACC-62 4.37 µM | SNB-19 15.6 µM | SNB-75 8.79 µM | LOX IMVI 2.24 µM | HOP-92 4.15 µM | SW-620 6.18 µM | M14 9.4 µM

O=C1C=CC2(C=C1)C[C@H](NC(=O)C(F)(F)F)C(=O)O2
inactive: SF-295 > 100 µM | NCI-H226 > 100 µM | U-251 54.3 µM | CCRF-CEM 16.4 µM | SF-539 34.7 µM | SF-268 37.9 µM | HCT-116 58.9 µM | UACC-62 18.1 µM | UACC-257 34.8 µM | SNB-19 > 100 µM | SNB-75 69 µM | LOX IMVI 22.3 µM | OVCAR-5 > 100 µM | OVCAR-4 > 100 µM | SR 37 µM | M14 73.8 µM

CC(=O)NC(CCCCN(Cc1ccccc1)C(=O)N(C)N=O)C(=O)NCc1ccccc1 (stereo not drawn)
inactive: SF-295 > 100 µM | NCI-H226 36.5 µM | U-251 > 100 µM | CCRF-CEM 59.6 µM | SF-539 > 100 µM | SK-MEL-2 > 100 µM | SF-268 38.9 µM | HCT-116 71.3 µM | UACC-62 > 100 µM | UACC-257 > 100 µM | SNB-19 > 100 µM | SNB-75 31.9 µM | LOX IMVI > 100 µM | OVCAR-5 > 100 µM | HOP-92 61.8 µM | OVCAR-4 62.2 µM | SW-620 > 100 µM | M14 > 100 µM
